Measurements taken from patent US6495560B1, “Vitronectin receptor antagonist” (SmithKline Beecham Corporation, priority 1998, dated 2002).

Target: T1, αvβ3 (vitronectin receptor) (Homo sapiens, UniProt P05106+P06756)
T1 construct: Human placenta or human platelet αvβ3 (0.1-0.3 mg/mL) in buffer T; from tissue; host or cells: human placenta or human platelets
Experiment: Solid-Phase [3H]-SK&F-107260 Binding to αvβ3
Details: human placenta or human platelet αvβ3; competition with 5.0 nM [3H]-SK&F-107260; Ki=IC50/(1+L/Kd)
Experimental: 0.1-0.2 μg of αvβ3 was added per well. The plates were incubated overnight at 4° C. At the time of the experiment, the wells were washed once with buffer A and were incubated with 0.1 mL of 3.5% bovine serum albumin in the same buffer for 1 hr at room temperature. Following incubation the wells were aspirated completely and washed twice with 0.2 mL buffer A.
Compound were dissolved in 100% DMSO to give a 2 mM stock solution, which was diluted with binding buffer (15 mM Tris-HCl (pH 7.4), 100 mM NaCl, 1 mM CaCl2, 1 mM MnCl2, 1 mM MgCl2) to a final compound concentration of 100 μM. This solution is then diluted to the required final compound concentration.
The plates were incubated for 1 hr at room temperature. Following incubation the wells were aspirated completely and washed once with 0.2 mL of ice cold buffer A in a well-to-well fashion.

T1 sequence (P06756 31-889 limits assumed): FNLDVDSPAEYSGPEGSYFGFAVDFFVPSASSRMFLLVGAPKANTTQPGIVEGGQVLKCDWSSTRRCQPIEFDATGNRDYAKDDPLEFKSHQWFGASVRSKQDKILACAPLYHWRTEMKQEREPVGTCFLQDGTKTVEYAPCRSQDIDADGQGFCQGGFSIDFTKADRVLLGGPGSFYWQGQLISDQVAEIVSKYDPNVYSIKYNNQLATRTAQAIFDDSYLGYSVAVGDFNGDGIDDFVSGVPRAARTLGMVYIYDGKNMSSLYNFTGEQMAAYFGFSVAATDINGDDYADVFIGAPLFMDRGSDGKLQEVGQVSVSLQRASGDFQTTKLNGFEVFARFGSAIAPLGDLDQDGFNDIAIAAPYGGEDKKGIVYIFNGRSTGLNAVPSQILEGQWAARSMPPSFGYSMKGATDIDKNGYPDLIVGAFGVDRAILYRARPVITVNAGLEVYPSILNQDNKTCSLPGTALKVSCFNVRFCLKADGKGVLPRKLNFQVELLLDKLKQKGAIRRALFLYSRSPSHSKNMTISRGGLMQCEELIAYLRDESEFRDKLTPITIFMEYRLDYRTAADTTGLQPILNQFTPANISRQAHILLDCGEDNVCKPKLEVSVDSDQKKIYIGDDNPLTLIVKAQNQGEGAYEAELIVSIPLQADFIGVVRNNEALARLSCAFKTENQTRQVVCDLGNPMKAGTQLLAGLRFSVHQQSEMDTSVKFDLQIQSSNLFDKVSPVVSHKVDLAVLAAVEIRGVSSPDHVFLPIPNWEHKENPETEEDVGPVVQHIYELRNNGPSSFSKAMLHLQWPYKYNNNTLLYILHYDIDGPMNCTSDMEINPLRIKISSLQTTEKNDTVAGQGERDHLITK
T1 sequence (P06756 891-1048 partner limits assumed): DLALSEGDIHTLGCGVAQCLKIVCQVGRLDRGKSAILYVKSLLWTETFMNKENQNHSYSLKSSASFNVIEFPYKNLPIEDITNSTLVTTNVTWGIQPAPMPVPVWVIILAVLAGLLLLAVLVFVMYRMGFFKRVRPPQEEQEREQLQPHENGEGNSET
T1 sequence (P05106 27-788): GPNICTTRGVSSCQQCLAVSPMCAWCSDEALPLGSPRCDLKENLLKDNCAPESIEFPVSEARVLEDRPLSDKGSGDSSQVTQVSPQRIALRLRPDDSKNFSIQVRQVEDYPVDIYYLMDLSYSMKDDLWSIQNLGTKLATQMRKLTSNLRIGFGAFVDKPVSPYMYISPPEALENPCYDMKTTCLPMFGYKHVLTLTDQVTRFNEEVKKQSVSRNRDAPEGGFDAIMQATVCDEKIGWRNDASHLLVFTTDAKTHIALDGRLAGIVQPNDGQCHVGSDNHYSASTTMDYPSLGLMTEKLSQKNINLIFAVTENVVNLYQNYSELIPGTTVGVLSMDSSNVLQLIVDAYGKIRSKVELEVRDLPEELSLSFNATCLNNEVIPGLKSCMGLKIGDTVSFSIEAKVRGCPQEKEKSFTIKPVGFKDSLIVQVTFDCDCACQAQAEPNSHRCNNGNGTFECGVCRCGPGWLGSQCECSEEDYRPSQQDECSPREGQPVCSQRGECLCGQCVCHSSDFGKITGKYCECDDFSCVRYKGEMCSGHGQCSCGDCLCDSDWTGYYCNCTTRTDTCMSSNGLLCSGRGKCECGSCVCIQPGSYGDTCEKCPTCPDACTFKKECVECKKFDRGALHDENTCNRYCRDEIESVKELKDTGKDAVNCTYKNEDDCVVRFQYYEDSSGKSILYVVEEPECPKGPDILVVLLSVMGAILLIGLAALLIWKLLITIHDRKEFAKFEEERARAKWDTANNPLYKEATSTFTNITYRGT

Ki: ~1.7 nM
SMILES: O=C(O)C[C@@H]1Cc2ccc(OCCc3ccc4c(n3)NCCC4)cc2Cc2ccccc21 [Example 1, (S)-10,11-dihydro-3-[2-(5,6,7,8-tetrahydro-1,8-naphthyridin-2-yl)-1-ethoxy]-5H-dibenzo[a,d]cycloheptene-10-acetic acid]
